Laboratory results: article PMC11284790, “Targeting Myeloperoxidase Ameliorates Gouty Arthritis: A Virtual Screening Success Story” (Journal of Medicinal Chemistry, 2024)

What was measured:
[1] = target: T1, Human leukocyte MPO (Homo sapiens, UniProt P05164); assay: MPO chlorinating activity assay (taurine chloramine/TMB); format: biochemical; parameters: Human leukocyte MPO (EC 1.7.1.11) was purchased from Planta Natural Products; purchased Planta Natural Products (Vienna, Austria); host or cells: human leukocytes; conditions: for chlorinating/peroxidatic activity inhibition ratio: ratio of % inhibition at 20 μM, ~1 indicates true enzyme inhibitor; for IC50: pH 7.4
T1 sequence (P05164 279-745 limits assumed): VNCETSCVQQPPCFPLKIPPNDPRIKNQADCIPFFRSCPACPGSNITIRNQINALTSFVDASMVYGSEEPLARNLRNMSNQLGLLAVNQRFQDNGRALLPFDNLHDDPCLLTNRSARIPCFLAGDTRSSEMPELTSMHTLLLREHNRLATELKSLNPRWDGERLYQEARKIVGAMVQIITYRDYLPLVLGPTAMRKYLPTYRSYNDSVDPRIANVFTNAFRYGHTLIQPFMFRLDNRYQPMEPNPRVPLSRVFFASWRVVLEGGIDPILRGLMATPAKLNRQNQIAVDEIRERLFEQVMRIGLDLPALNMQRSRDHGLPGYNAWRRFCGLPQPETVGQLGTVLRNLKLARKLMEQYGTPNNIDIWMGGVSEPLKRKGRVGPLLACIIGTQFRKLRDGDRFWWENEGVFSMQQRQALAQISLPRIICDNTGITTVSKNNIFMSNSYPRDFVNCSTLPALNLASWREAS
T1 sequence (P05164 165-278 limits assumed): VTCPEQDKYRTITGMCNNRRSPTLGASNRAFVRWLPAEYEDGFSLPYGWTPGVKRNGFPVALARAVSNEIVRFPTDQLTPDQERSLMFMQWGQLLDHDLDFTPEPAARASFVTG
Protocol: Chlorinating activity was carried out in phosphate buffer (20 mM, pH 7.4). Compounds (20 μM) were dissolved in 0.03% DMSO, MPO (10 nM), diethylenetriaminepentaacetic acid (100 μM), cetyltrimethylammonium chloride (0.03%), NaCl (140 mM), and taurine (5 mM).[31] This mixture was incubated at 37 °C for 15 min before adding 40 μM hydrogen peroxide. The reaction ran for 8 min and was then stopped by catalase (20 μg/mL). Oxidation of TMB (2 mM) (3,3,5,5-tetramethylbenzidine) by taurine chloroamine catalyzed by iodide (100 μM) was quantified at 650 nm.[33] Results were expressed as a percentage of the control (vehicle). IC50 was calculated by nonlinear regression using the Hill equation present in GraphPad Prism 5 software.

[2] = target: T1, Human leukocyte MPO; assay: MPO peroxidatic activity assay (AmplexRed oxidation); format: biochemical; parameters: Human leukocyte MPO (EC 1.7.1.11) was purchased from Planta Natural Products; purchased Planta Natural Products (Vienna, Austria); host or cells: human leukocytes
Protocol: MPO peroxidase activity was kinetically monitored using the artificial peroxidase substrate AmplexRed, which is oxidized to resorufin and can be detected by fluorescence.[34] Reactions were carried out in phosphate buffer (50 mM, pH 7.4), MPO (100 pM), cetyltrimethylammonium chloride (0.03%), diethylenetriaminepentaacetic acid (100 μM), AmplexRed (30 μM), and compounds (20 μM in 0.3% DMSO). The reaction was started by adding 2 μM hydrogen peroxide. The reaction product was assessed by fluorescence at λex = 530 and λem = 580 nm. The initial velocity was calculated by the slope of the linear regression in the first minutes of reaction. Inhibition is represented as a percentage of the control (vehicle).

[3] = test system: dHL-60 cells; assay: Cellular production of HOCl, PMA-activated dHL-60 cells; format: cell-based, human; conditions: 20 μM compound, 100 nM PMA, 1 h
Protocol: Human promyelocytic leukemic cells (HL-60) (BCRJ, RJ, Brazil) were cultivated in RPMI with fetal bovine serum (10%), penicillin (62 μg/mL), and streptomycin (100 μg/mL) at 37 °C in 5% CO2 atmosphere. HL-60 cells were differentiated to neutrophil-like (dHL-60) by DMSO (1.25%) during 4 days.[25]
(§1) Measurement of HOCl production by 1 × 10^6 dHL-60 or neutrophils was carried out in PBS (10 mM Na2HPO4, 2 mM KH2PO4, 0.5 mM MgCl2, 1 mM CaCl2, 140 mM NaCl, 5.5 mM dextrose, 100 μM diethylenetriaminepentaacetic acid, 5 mM taurine) in the presence of the compounds (20 μM in 0.3% DMSO) or 0.3% DMSO (control). Cells were activated with phorbol myristate acetate (100 nM) at 37 °C for 1 h. After incubation, cells were centrifuged at 1400 rpm for 10 min, and the supernatant was diluted threefold. Finally, 240 μL of this supernatant was added to 60 μL acetate buffer (400 mM, pH 5.4) containing NaI (100 μM) and TMB (2 mM in DMFO 10%). Taurine chloramine was quantified by TMB oxidation at 655 nm.[33] Inhibition of HOCl production was calculated as the percentage of the control (vehicle).

[4] = Taurine chloroamine scavenger assay; conditions: 15 min at 37 °C, TMB readout
Protocol: Taurine chloramine was prepared by mixing hypochlorous acid (2.81 mM) with taurine (5 mM), cetyltrimethylammonium chloride (0.03%), NaCl (140 mM), and diethylenetriaminepentaacetic acid (100 μM) in phosphate buffer (20 mM, pH 7.4). The system was kept at 37 °C for 5 min for complete chloramine taurine formation. The compounds were added to this mixture and incubated for 15 min at 37 °C. Taurine chloramine was quantified by the oxidation of TMB (2 mM) catalyzed by iodide (100 μM).[33]

[5] = test system: human peripheral blood neutrophils; assay: Cellular production of HOCl, PMA-activated peripheral blood neutrophils; format: cell-based; conditions: 20 μM compound, 100 nM PMA, 1 h
Protocol: Human neutrophils were obtained from healthy individuals as previously described.[24] The experiments were approved by the local ethics committee (CEPSH-ICB 1435/18).
as §1

[6] = 20 μM compound, 10 nM MPO, 140 mM NaCl, 5 mM taurine, 40 μM H2O2, pH 7.4, read-out: % Inhibition (at 20 μM) Chlorinating
[7] = supplementary csv copy of Table 1, read-out: % Inhibition (Chlorinating)
[8] = 20 μM compound, 100 pM MPO, 30 μM AmplexRed, 2 μM H2O2, pH 7.4, read-out: % Inhibition (at 20 μM) Peroxidatic
[9] = supplementary csv copy of Table 1, read-out: % Inhibition (Peroxidatic)
[10] = 20 μM compound, 10 nM MPO, 140 mM NaCl, 5 mM taurine, 40 μM H2O2, pH 7.4
[11] = supplementary csv copy of Table 1
[12] = 20 μM compound, 100 pM MPO, 30 μM AmplexRed, 2 μM H2O2, pH 7.4

SMILES | inhibition at 20 µM [1, 6] | inhibition at 20 µM [1, 7] | inhibition at 20 µM [2, 8] | inhibition at 20 µM [2, 9] | chlorinating/peroxidatic activity inhibition ratio [1] | % Inhibition (at 20 μM) Chlorinating [1, 10] | % Inhibition (Chlorinating) [1, 11] | % Inhibition (at 20 μM) Peroxidatic [2, 12] | IC50 ([1]; 10 nM MPO, 140 mM NaCl) | % Inhibition (Peroxidatic) [2, 11] | inhibition of HOCl production in dHL-60 cells [3] | scavenger activity toward taurine chloramine [4] | inhibition of HOCl production in peripheral blood neutrophils [5]
CC1=Nc2ccc(Cl)cc2-c2[nH]c3ccccc3c2N1 [RL1] | 50.2 ± 4% | 50.2 ± 4% | 81 ± 15.1% | 81 ± 15.1% | – | – | – | – | – | – | – | – | –
CC1CCc2sc3c(c2C1)c1ncnn1c1nnc(S)n31 (centres unmarked) [RL9] | 92 ± 3.2% | 92 ± 3.2% | 42.1 ± 7.9% | 42.1 ± 7.9% | high | – | – | – | – | – | – | – | –
COc1cc(/C=N/NC(=O)c2ccoc2C)ccc1OCCN1CCCCC1 [RL15] | – | – | – | – | – | INACTIVE | INACTIVE | – | – | – | – | – | –
CCOC(=O)C(Cc1ccc(O)cc1)NC1=CC(=O)C(=O)c2ccccc21 (centres unmarked) [RL16] | – | – | 67.1 ± 8.1% | 67.1 ± 8.1% | – | INACTIVE | INACTIVE | inhibited exclusively the peroxidatic assay | – | – | – | – | –
O=C1ON=C(c2ccccc2)/C1=C\c1cccc(O)c1 [RL17] | 63 ± 6.2% | 63 ± 6.2% | 24 ± 4.1% | 24 ± 4.1% | high | – | – | – | – | – | – | – | –
COc1ccc(C(=O)Nc2ccc(-c3nnc(S)o3)cc2)cc1 [RL18] | 73 ± 19.7% | 73 ± 19.7% | – | – | high | active against chlorinating activity only | – | INACTIVE | 12 µM | INACTIVE | no effect | scavenger capacity | no effect
N#CC1=C(N)Oc2c(c(=O)sc3ccccc23)C1c1ccc(F)cc1 (centres unmarked) [RL20] | – | – | 34 ± 4.3% | 34 ± 4.3% | – | INACTIVE | INACTIVE | inhibited exclusively the peroxidatic assay | – | – | – | – | –
CCOC(=O)C1=C(N)Oc2cc(O)ccc2C1c1ccc(F)cc1F (centres unmarked) [RL24] | 40.1 ± 5.5% | 40.1 ± 5.5% | 59.1 ± 2.9% | 59.1 ± 2.9% | – | – | – | – | – | – | – | – | –

Second part, led by results:

inhibition at 20 µM [1, 6] | inhibition at 20 µM [1, 7] | inhibition at 20 µM [2, 8] | inhibition at 20 µM [2, 9] | chlorinating/peroxidatic activity inhibition ratio [1] | % Inhibition (at 20 μM) Chlorinating [1, 10] | % Inhibition (Chlorinating) [1, 11] | % Inhibition (at 20 μM) Peroxidatic [2, 12] | IC50 ([1]; 10 nM MPO, 140 mM NaCl) | % Inhibition (Peroxidatic) [2, 11] | SMILES | inhibition of HOCl production in dHL-60 cells [3] | scavenger activity toward taurine chloramine [4] | inhibition of HOCl production in peripheral blood neutrophils [5]
57.8 ± 13.9% | 57.8 ± 13.9% | 25.1 ± 3.2% | 25.1 ± 3.2% | – | – | – | – | – | – | CCc1n[nH]c2c1C(c1ccc(O)c(OC)c1)C(C#N)=C(N)O2 (centres unmarked) [RL23] | – | – | –
– | – | – | – | – | INACTIVE | INACTIVE | INACTIVE | – | INACTIVE | O=c1c2cnc3cc(C(F)(F)F)ccc3c2sc2nncn12 [RL25] | – | – | –
81 ± 5.8% | 81 ± 5.8% | 78.7 ± 4.2% | 78.7 ± 4.2% | – | – | – | – | 12.6 µM | – | CCCOc1ccc(C2C(C#N)=C(N)SC(N)=C2C#N)cc1OC [RL26] | – | decreased both taurine chloroamine | –
18.6 ± 1.6% | 18.6 ± 1.6% | 29.5 ± 2.9% | 29.5 ± 2.9% | – | – | – | – | – | – | CC1CCCc2sc3nc(S)n(N)c(=O)c3c21 (centres unmarked) [RL27] | – | – | –
– | – | – | – | – | INACTIVE | INACTIVE | INACTIVE | – | INACTIVE | CCCNc1ncnc2cc(-c3ccc(OC)cc3)sc12 [RL28] | – | – | –
